In patent publication US20230135127A1, “COMPOSITIONS AND METHODS FOR DISEASE TREATMENT AND PREVENTION BY PH MODIFIERS AND/OR CELL PROLIFERATION INHIBITORS” (priority 2021, published 2023):
Where a name gives a salt, the structure may show the parent alone.

Key:
[1] = tested on: proliferating cells in the intestinal villi; test: Ki-67 immunohistochemistry of intestines; format: in vivo, mice; conditions: i.p. x3, one day after third dose
Protocol: (97). Briefly, the tissue sections were first deparaffinized and rehydrated.
Mice were i.p. treated with saline or saline plus HCl, HOAc or NaOH every other day for a total of 3 doses. One day after the third dose, mice were sacrificed, and tissue sections of the intestines were analyzed by immunohistochemistry staining of Ki-67 with hematoxylin counter staining.

[2] = tested on: thymocytes; test: Asthma model: thymus and thymocyte populations in vivo; parameters: species or system mice; conditions: for size of the thymus vs saline (gross examination): 3 days after final challenge and treatment; for percentage of Ki-67hi total thymocytes: saline 22.7%; for percentage of DP (CD4+CD8+) thymocyte subpopulation: saline 69.7%
Protocol: Cells were washed 3 times with PBS then stained with Zombie viability dyes at room temperature for 20 minutes. At the end of incubation, 10% volume of FBS was added to absorb excess Zombie dyes. After washes, the cells were stained with conjugated antibodies against surface antigens on ice. As specified in some experiments, the cells were subsequently stained with fluorochrome-conjugated Avidin. For Annexin V staining, cells were washed twice with plain PBS and once with Annexin V binging buffer (10 mM HEPES, pH7.4, 140 mM NaCl, 2.5 mM CaCl2)) after surface antigen staining, and incubated with fluorochrome-conjugated Annexin V in Annexin V binding buffer for 15 min at room temperature. The cells were washed twice in Annexin V binding buffer and resuspended in Annexin V binding buffer. 7-AAD was added to the cells before analyzed by flow cytometry. For Ki-67 and Foxp3 staining, lymphocytes (after Zombie dye and surface antigen staining) or tumor cells (without surface antigen staining) were fixed and permeabilized using Foxp3 staining buffer kit, then stained with PE-conjugated anti-mouse or human Ki-67 antibodies. (Biolegend, San Diego, Calif., USA). Stained and unstained cells were analyzed on Accuri C6 Flow Cytomer (Accuri Cytometers, Inc., Ann Arbor, Mich.), FACS Canto (BD Bioscience, San Jose, Calif., USA) and Attune™ cytometer (Invitrogen, Carlsbad, Calif.). Data analyses were carried out using FlowJo X.
In the asthma model, OVA sensitized mice were challenged with OVA by i.t. injection every other day for 3 times. The mice received i.t. treatment with saline, HCl or HOAc at the same time as challenge, or i.p. treatment with NaOH 1 hour after the challenge. Thymuses were harvested 3 days after the final challenge and treatment. […] (FIG. 20a). […] The thymocytes can be divided into Ki-67 high, low and negative populations. (FIG. 20b).

[3] = tested on: primary thymocytes; test: In vitro treatment of thymocytes in FBS, Ki-67; format: cell-based, mouse; conditions: FBS with saline plus modifier, vs saline cultures
[4] = tested on: C57BL/6 mice fed high fat diet; test: High fat diet obesity model; format: in vivo; conditions: for average reduction of intestinal length vs saline: entire intestines; for intestines vs saline (gross examination): from end of stomach to anus; for sizes of fat pads vs saline: gross; for loss of body weight: i.p. every other day, four doses, 3 days after final treatments, saline about 3%; for average fat/bodyweight ratio / fold reduction of fat/bodyweight ratio vs saline: i.p. four doses; for average fat/bodyweight ratio: saline 0.135
Protocol: The obesity model was similar to those previously described. (95, 96). Female C57BL/6 mice of 4 weeks age were acclimated at CRADL for 1 week. After the acclimation, mice were switched to Gamma-irradiated high fat diet (Research Diets, New Brunswick, N.J., USA) (60% calories from fat). After 4 weeks of high fat diet, the mice were switched back to regular diet, and treated with i.p. injection of saline or saline plus HCl or HOAc. The bodyweight of each mouse was recorded before each treatment, and at the end of the experiment.
In the obesity model of Example 10, after fed with high fat diet for 4 weeks, mice were weighed to record total body weight. The mice were switched to regular diet and randomly divided into groups to receive i.p. treatments with saline or saline plus HCl, HOAc or NaOH. The mice continued to receive i.p. treatments on every other day for 3 additional doses. Four days after the final treatments, mice were sacrificed, their total body weights were measured, fat pads, and internal organs were collected, weighed, and analyzed.
Obesity was induced in C57BL/6 mice by feeding young (5 weeks old) female mice with high fat diet for 4 weeks. The mice were then switched to normal diet and randomly divided into groups to receive i.p. treatments with saline or saline plus HCl, HOAc or NaOH every other day for a total of four doses. The mice were analyzed 3 days after the final treatments.

[5] = tested on: C57BL/6 mice immunized with MOG35-55 (EAE); conditions: for mice with clinical scores lower than at initiation of treatment: by day 4, 5 HCl mice, 9 HOAc mice; for average EAE clinical score: day 4 after initiation of treatment, saline 3.46; for inflammation in the spinal cords (histology): day 4 post initiation of treatment; for mice that reached clinical score of 4 or above: i.p. 87.5 mM, 4 doses from score 1.5-2.5, saline 10 of the 11
Protocol: Induction of experimental autoimmune encephalomyelitis (EAE), the mouse model of multiple sclerosis, was carried out as previously described. (94). (Also see https://hookelabs.com/protocols/eaeAI_C57BL6.html). […] The final antigen emulsion comprised 1.5 mg/ml of MOG35-55, 189 μg/ml of M. tuberculosis H37Ra and 50% (by volume) IFA.
Female C57BL/6 mice of 9 weeks old were acclimated at CRDAL for 1 week. On day 0, mice were immunized by s.c. (subcutaneous) injection of the antigen emulsion at 4 evenly distributed sites in the dorsal area (25 μl/site). Two hours later, the mice were i.p. injected with Pertussis Toxin (List Biological laboratories, Campbell, Calif., USA) freshly prepared in ice-cold PBS (200 ng in 100 μl PBS/mouse). On day 1, the mice received a second i.p. injection of Pertussis Toxin at the same dosage. […] Mice with clinical score of 3 or above were provided wet chows and hydrogels.
In the EAE model of Example 2, two types of experiments, i.e., therapeutic and preventive experiments, were carried out. For the therapeutic experiments, on the day when the mice first reached the clinical scores of 1.5 to 2.5, the mice received i.p. treatments with saline, or saline plus 87.5 mM HCl or HOAc. The mice received additional 3 i.p. treatments every other day. […] The mice received i.p. treatments every other day for additional 2 doses. Clinical scores of all mice were recorded daily during and after the treatment periods, but experimentation was terminated on mice that reached clinical score of 5. As specified in some experiments, mice were sacrificed, and spinal cords were collected for histology analyses.
Lungs (after BALF collection), spinal cords and intestines were harvested and fixed in 10% neural formalin (Fisher Scientific, Kalamazoo, Mich., USA). […] Periodic acid-Schiff (PAS) staining was also performed with the lung tissue sections to determine mucus secretion in the lungs as a result of the inflammatory infiltration.

Row | SMILES | Ki-67+ cells in the intestinal villi (IHC) [1] | Ki-67 staining intensity in intestines [1] | size of the thymus vs saline (gross examination) [2] | increase of total numbers of thymocytes vs saline ([2]; i.p. NaOH) | percentage of Ki-67hi total thymocytes [2] | percentage of DP (CD4+CD8+) thymocyte subpopulation [2] | Ki-67+ cells in thymocytes after in vitro treatment [3] | average reduction of intestinal length vs saline [4] | intestines vs saline (gross examination) [4] | sizes of fat pads vs saline [4] | loss of body weight [4] | average fat/bodyweight ratio [4] | mice with clinical scores lower than at initiation of treatment [5] | average EAE clinical score [5] | inflammation in the spinal cords (histology) [5] | mice that reached clinical score of 4 or above [5] | mice whose clinical score remained the same ([5]; mouse, in vivo) | decrease of total numbers of thymocytes vs saline ([2]; i.t. HOAc) | fold reduction of fat/bodyweight ratio vs saline [4]
1 | [Na+].[OH-] [NaOH, sodium hydroxide] | more Ki-67^+ cells in the intestinal villi of saline- or NaOH-treated mice than the HCl- or HOAc-treated mice | strongest | similar | about 28% | 31.7% | 77.6% | higher percentages of Ki-67^+ cells | about 2% | only slightly shortened | somewhat reduced | about 17% | 0.106 |  |  |  |  |  |  | 
2 | CC(=O)O [HOAc, acetic acid] | more Ki-67^+ cells in the intestinal villi of saline- or NaOH-treated mice than the HCl- or HOAc-treated mice | stronger than those of the HCl- or HOAc-treated mice | dramatically smaller |  | 15.4% | 43.8% | almost no Ki-67^+ cells | ~12% | drastically shortened | much smaller | ~15% | 0.045 | 6 | 1.78 | no obvious inflammation | 1 of the 9 | 2 | ~90% | 3 fold
3 | Cl [HCl, hydrochloric acid] | more Ki-67^+ cells in the intestinal villi of saline- or NaOH-treated mice than the HCl- or HOAc-treated mice | stronger than those of the HCl- or HOAc-treated mice | dramatically smaller |  |  |  | almost no Ki-67^+ cells | about 31% | drastically shortened | much smaller | about 25% | 0.027 | all | 0.9 | no obvious inflammation | none of the 5 |  |  | 5 fold
